# Measured values taken from patent US6348483B1, “Use of derivatives of methylene-bis-oxazolidine and compositions obtained thereby” (Air Liquide Sante (International), priority 1998, dated 2002).
# Test system: Chlorella fusca (CF)
# Assay: Algistatic finish (SM 023) of pure acrylate house paint
# Format: cell-based
# Details: without and with stress due to leaching; active compound concentration of 0.2% by weight based on house paint and test substance
# Description: In separate batches, the test concentrations of the active compounds/products were incorporated into the house paint, and the fungicidal and/or algistatic finish was determined using the stated test methods.
# Incorporation and testing were carried out according to the methods SM 022 and SM 023 below.
# This laboratory method was employed for determining the resistance of house coatings to colonization by algae. For this method, house coatings on standardized paper are used as test substrate and Chlorella fusca is used as test alga. It is furthermore possible to use pure cultures of other algae species of practical relevance.
# The experiments were carried out in Petri dishes on agar nutrient media.
# 50 g of the material to be finished were, in separate batches, mixed with various concentrations of the algicide to be examined and homogenized for 3-5 min using a basket stirrer.
# Paper carrier materials having the dimensions 90×270 mm (Schleicher & Schüll No. 2589 B/X 24078) were coated with the test material. The paint and/or render samples were coated to a wet-layer thickness of 250 μm by knife coating. […] In the case of renders, the layer thickness depends, as in practice, on the particle size. The coated carrier materials, hereinbelow referred to as test bodies, were subsequently dried in a horizontal position for five days.
# […] The cross section of the container for the watering in the direction of flow was 1000±500 cm^2.
# From the pretreated test bodies, three sample bodies having a diameter of 5 cm were punched out and sterilized in a Co^60 source using at least 10 kGy.
# Aseptically, the samples were placed onto the algae nutrient media, and the centre of the sample was inoculated with 5 ml of each algae suspension.
# The mixture of the algae suspensions was spread on the surface using a Drigalski spatula or an offset sterile glass rod.
# During the growth phase at 22±2° C., the coated samples in the Petri dishes were irradiated with light of an intensity of about 1000 Lux (customary fluorescent tubes, type D 67 daylight). A cycle of in each case 12 hours of irradiation and 12 hours of storage in the dark was used.
# The colonization of the samples by algae was examined and evaluated after two weeks. Evaluation was carried out visually. The evaluation of the samples was based on the following evaluation scale:
# No growth of algae on the test bodies
# Formation of an inhibitory zone or growth of algae on the nutrient medium up to the edge of the test bodies
# Visible colonization of the test body by algae
smiles,measurement,value
"COC(=O)Nc1nc2ccccc2[nH]1 [carbendazim, Methyl 1H-benzimidazol-2-ylcarbamate]",Algicidal action (in words),no algicidal action
